This passage reports Ki and inhibition results from patent US9181236B2, “2-spiro-substituted iminothiazines and their mono-and dioxides as bace inhibitors, compositions and their use” (Merck Sharp & Dohme Corp., priority 2011, dated 2015).

The first assay deals with soluble human BACE1 catalytic domain (Homo sapiens (Human), UniProt P56817). Nature of the assay: BACE1 HTRF FRET Assay. It counts as biochemical. To be noted: Ki calculated from IC50 using the Cheng-Prusoff equation. The text has this: A homogeneous time-resolved FRET assay can be used to determine IC50 values for inhibitors of the soluble human BACE1 catalytic domain. This assay monitors the increase of 620 nm fluorescence that resulted from BACE1 cleavage of an APPswedish APP^swe mutant peptide FRET substrate (QSY7-[…]-Europium-amide). This substrate contains an N-terminal QSY7 moiety that serves as a quencher of the C-terminal Europium fluorophore (620 nm Em). In the absence of enzyme activity, 620 nm fluorescence is low in the assay and increased linearly over 3 hours in the presence of uninhibited BACE1 enzyme Inhibition of BACE1 cleavage of the QSY7-APP^swe-Eu substrate by inhibitors is manifested as a suppression of 620 nm fluorescence.
Chain of soluble human BACE1 catalytic domain (P56817 75-416): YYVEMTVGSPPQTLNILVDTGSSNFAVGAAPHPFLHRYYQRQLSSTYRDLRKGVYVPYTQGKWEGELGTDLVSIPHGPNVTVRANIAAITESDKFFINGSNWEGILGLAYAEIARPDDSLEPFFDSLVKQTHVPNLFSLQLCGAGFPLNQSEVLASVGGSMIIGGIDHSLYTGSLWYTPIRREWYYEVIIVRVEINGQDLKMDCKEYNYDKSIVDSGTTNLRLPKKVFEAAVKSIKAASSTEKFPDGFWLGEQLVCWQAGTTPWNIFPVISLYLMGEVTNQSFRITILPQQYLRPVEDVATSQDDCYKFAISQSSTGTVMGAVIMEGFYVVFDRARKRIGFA
Reactions are initiated by addition of 10 μl of 600 nM QSY7-APP^swe-Eu substrate (200 nM final) to give a final reaction volume of 30 μl in a 384 well Nunc HTRF plate. The reactions are incubated at 30° C. for 1.5 hours. The 620 nm fluorescence is then read on a Rubystar HTRF plate reader (BMG Labtechnologies) using a 50 millisecond delay followed by a 400 millisecond acquisition time window Inhibitor IC50 values are derived from non-linear regression analysis of concentration response curves.
The Ki is the dissociation constant of the complex between target and ligand, obtained from inhibition or displacement. `COCC(=O)Nc1ccc(F)c([C@]2(C)CS(=O)(=O)[C@]3(CCOC3)C(=N)N2)c1` [Example 81w]: the Ki is 429 nM. With `C[C@@]1(c2sc(-c3cncc(N4CCOCC4)c3)cc2Cl)CS(=O)(=O)[C@]2(CCOC2)C(=N)N1` [Example 62i], the Ki is 1660 nM.

As to `C[C@@]1(c2sc(-c3ccnc(-c4cccs4)c3)cc2Cl)CS(=O)(=O)[C@@]2(CCOC2)C(=N)N1` [Example 63m], the Ki was 986 nM. On the same count and under the same terms, for `C[C@@]1(c2sc(-c3cncnc3)cc2Cl)CS(=O)(=O)C2(CCCC2)C(=N)N1` [Example 43] the value was 73.1 nM; for `C[C@@]1(c2cc(NC(=O)c3ncc(Cl)cc3Cl)ccc2F)CS(=O)(=O)C2(CCCC2)C(=N)N1` [Example 18], 2.7 nM; for `C[C@@]1(c2sc(C(=O)NCc3ccc(C#N)cc3)cc2Cl)CS(=O)(=O)C2(CCCCC2)C(=N)N1` [Example 80f], 851 nM.

Regarding `C[C@@]1(c2sc(C(=O)NCc3cccc(F)c3)cc2Cl)CS(=O)(=O)C2(CCCCC2)C(=N)N1` [Example 80d], the Ki was 5120 nM. Still for that read-out and setting: to `C[C@@]1(c2cc(NC(=O)[C@H]3CCCO3)ccc2F)CS(=O)(=O)[C@]2(CCOC2)C(=N)N1` [Example 81j] belongs 1400 nM; to `C[C@@]1(c2cc(NC(=O)C3CCC3(F)F)ccc2F)CS(=O)(=O)[C@]2(CCOC2)C(=N)N1` (stereo partly drawn) [Example 81o], 3710 nM; to `C[C@@]1(c2sc(-c3ccnc(-c4ccccc4)c3)cc2Cl)CS(=O)(=O)[C@@]2(CCOC2)C(=N)N1` [Example 63k], 849 nM. The same measure, in the same setting: for `C[C@@]1(c2sc(-c3cccc(N4CCCC4)c3)cc2Cl)CS(=O)(=O)C2(CCOCC2)C(=N)N1` [Example 56] the value was 5740 nM; for `COc1cncc(-c2cc(Cl)c([C@]3(C)CS(=O)(=O)C4(CCOCC4)C(=N)N3)s2)c1` [Example 53], 555 nM; for `C[C@@]1(c2sc(-c3cccc(-c4nnco4)c3)cc2Cl)CS(=O)(=O)C2(CCOCC2)C(=N)N1` [Example 57a], 34.9 nM.

For the compound `C[C@@]1(c2sc(C(=O)NCc3cnsn3)cc2Cl)CS(=O)(=O)C2(CCCCC2)C(=N)N1` [Example 80a], the Ki was 144 nM. On the same count and under the same terms, for `CCC(=O)Nc1ccc(F)c([C@]2(C)CS(=O)(=O)[C@]3(CCOC3)C(=N)N2)c1` [Example 81l] the value was 949 nM; for `C[C@@]1(c2cc(NC(=O)c3cocn3)ccc2F)CS(=O)(=O)[C@]2(CCOC2)C(=N)N1` [Example 81c], 180 nM. Still for that read-out and setting: to `C[C@@]1(c2cc(NC(=O)C(F)F)ccc2F)CS(=O)(=O)[C@]2(CCOC2)C(=N)N1` [Example 81n] belongs 639 nM. Consider `C[C@@]1(c2cc(NC(=O)C3CCC3)ccc2F)CS(=O)(=O)[C@]2(CCOC2)C(=N)N1` [Example 81f], for which the Ki is 2080 nM. In the case of `C[C@@]1(c2cc(NC(=O)c3cncs3)ccc2F)CS(=O)(=O)[C@]2(CCOC2)C(=N)N1` [Example 81t], the Ki was 1940 nM. On the same count and under the same terms, to `C[C@@]1(c2sc(C(=O)NCc3cnn4ccccc34)cc2Cl)CS(=O)(=O)C2(CCCCC2)C(=N)N1` [Example 80b] belongs 41 nM.

Turning to `C[C@@]1(c2cc(-n3cc(-c4ccccc4)nn3)ccc2F)CS(=O)(=O)C2(CCC2)C(=N)N1` [Example 39a], the Ki was 2320 nM.

For `C[C@@]1(c2cc(NC(=O)C3(C#N)CC3)ccc2F)CS(=O)(=O)[C@]2(CCOC2)C(=N)N1` [Example 81i], the Ki is 741 nM. The same measure, in the same setting: to `CC(F)(F)C(=O)Nc1ccc(F)c([C@]2(C)CS(=O)(=O)[C@]3(CCOC3)C(=N)N2)c1` [Example 81ad] belongs 313 nM; to `CCc1cccc(NC(=O)c2cc(Cl)c([C@]3(C)CS(=O)(=O)C4(CCCCC4)C(=N)N3)s2)n1` [Example 80m], 717 nM; to `C[C@@]1(c2cc(-c3cccc(C#N)c3)ccc2F)CS(=O)(=O)C2(CCCC2)C(=N)N1` [Example 36], 1290 nM.

Turning to `C[C@@]1(c2sc(C#CCCNS(C)(=O)=O)cc2Cl)CS(=O)(=O)C2(CCC2)C(=N)N1` [Example 77c], the Ki was 105 nM.

On to `C[C@@]1(c2cc(NC(=O)c3ncccc3C(F)(F)F)ccc2F)CS(=O)(=O)[C@]2(CCOC2)C(=N)N1` [Example 81ab], for which the Ki was 146 nM.

Consider `C[C@@]1(c2cc(NC(=O)c3ccc(OC(F)(F)F)cn3)ccc2F)CS(=O)(=O)[C@]2(CCOC2)C(=N)N1` [Example 81aa], for which the Ki was 304 nM. As for `COc1cccc2cc(-c3ccc(F)c([C@]4(C)CS(=O)(=O)C5(CCCC5)C(=N)N4)c3)n(C(=O)OC(C)(C)C)c12` [Example 39], the Ki is 1330 nM. On the same count and under the same terms, for `CC1(C(=O)Nc2ccc(F)c([C@]3(C)CS(=O)(=O)[C@]4(CCOC4)C(=N)N3)c2)COC1` [Example 81p] the value was 4180 nM. On to `C[C@@]1(c2sc(-c3cncc(F)c3)cc2Cl)CS(=O)(=O)C2(CCOCC2)C(=N)N1` [Example 55], for which the Ki was 260 nM.

`C[C@@]1(c2sc(C#CCN3CCOCC3)cc2Cl)CS(=O)(=O)C2(CCC2)C(=N)N1` [Example 77d]: the Ki was 2360 nM. On to `C[C@@]1(c2sc(C(=O)NCc3cnoc3)cc2Cl)CS(=O)(=O)C2(CCCCC2)C(=N)N1` [Example 80], for which the Ki was 249 nM. With `C[C@@]1(c2sc(-c3cncnc3)cc2Cl)CS(=O)(=O)C2(CCC2)C(=N)N1` [Example 60], the Ki is 374 nM. Still for that read-out and setting: to `C[C@@]1(c2cc(NC(=O)c3cscn3)ccc2F)CS(=O)(=O)[C@]2(CCOC2)C(=N)N1` [Example 81u] belongs 433 nM.

Turning to `C[C@@]1(c2cc(NC(=O)C3CC3(F)F)ccc2F)CS(=O)(=O)[C@]2(CCOC2)C(=N)N1` (stereo partly drawn) [Example 81s], the Ki was 1250 nM. As to `C[C@@]1(c2cc(NC(=O)c3ncc(Cl)cc3F)ccc2F)CS(=O)(=O)C2(CCOCC2)C(=N)N1` [Example 35a], the Ki is 6.5 nM. Still for that read-out and setting: for `C[C@@]1(c2sc(-c3cncnc3)cc2Cl)CS(=O)(=O)C2(CCCCC2)C(=N)N1` [Example 47] the value was 545 nM; for `COc1cccc(NC(=O)c2cc(Cl)c([C@]3(C)CS(=O)(=O)C4(CCCCC4)C(=N)N3)s2)n1` [Example 80l], 207 nM; for `C[C@@]1(c2sc(C(=O)NCc3ccc(F)cc3)cc2Cl)CS(=O)(=O)C2(CCCCC2)C(=N)N1` [Example 80e], 588 nM. The same measure, in the same setting: to `C[C@@]1(c2cc(NC(=O)CC3CC3)ccc2F)CS(=O)(=O)[C@]2(CCOC2)C(=N)N1` [Example 81g] belongs 2960 nM; to `Cc1cnc(C(=O)Nc2ccc(F)c([C@]3(C)CS(=O)(=O)[C@]4(CCOC4)C(=N)N3)c2)cn1` [Example 81h], 108 nM; to `C[C@@]1(c2cc(NC(=O)c3ncc(Cl)cc3C#N)ccc2F)CS(=O)(=O)[C@]2(CCOC2)C(=N)N1` [Example 81ag], 5.7 nM. The same measure, in the same setting: to `CC(C)(O)c1cncc(-c2cc(Cl)c([C@]3(C)CS(=O)(=O)[C@]4(CCOC4)C(=N)N3)s2)c1` [Example 62m] belongs 2420 nM; to `C[C@@]1(c2sc(-c3cccc(-c4nnco4)c3)cc2Cl)CS(=O)(=O)C2(CCCC2)C(=N)N1` [Example 43a], 37 nM. Consider `Cc1ccc(C(=O)Nc2ccc(F)c([C@]3(C)CS(=O)(=O)[C@]4(CCOC4)C(=N)N3)c2)nc1` [Example 81y], for which the Ki was 41 nM. Still for that read-out and setting: for `C[C@@]1(c2sc(-c3cncnc3)cc2Cl)CS(=O)(=O)C2(CCOCC2)C(=N)N1` [Example 51] the value was 688 nM; for `COc1ccc(C(=O)Nc2ccc(F)c([C@]3(C)CS(=O)(=O)[C@]4(CCOC4)C(=N)N3)c2)nn1` [Example 81ae], 904 nM. Same read-out and setting: for `CCOCC(=O)Nc1ccc(F)c([C@]2(C)CS(=O)(=O)[C@]3(CCOC3)C(=N)N2)c1` [Example 81a] the value was 4150 nM; for `C[C@@]1(c2cc(-c3cncc(C#N)c3)ccc2F)CS(=O)(=O)C2(CCCC2)C(=N)N1` [Example 38], 939 nM; for `CC(=O)Nc1ccc(F)c([C@]2(C)CS(=O)(=O)[C@]3(CCOC3)C(=N)N2)c1` [Example 81x], 1520 nM. Same read-out and setting: to `C[C@@]1(c2cc(NC(=O)C3CCO3)ccc2F)CS(=O)(=O)[C@]2(CCOC2)C(=N)N1` (stereo partly drawn) [Example 81d] belongs 488 nM; to `C[C@@]1(c2sc(C(=O)NCc3ccsn3)cc2Cl)CS(=O)(=O)C2(CCCCC2)C(=N)N1` [Example 80k], 121 nM. Consider `C[C@@]1(c2cc(NC(=O)C3CC3)ccc2F)CS(=O)(=O)[C@]2(CCOC2)C(=N)N1` [Example 81], for which the Ki is 5170 nM. Regarding `CC1(C(=O)Nc2ccc(F)c([C@]3(C)CS(=O)(=O)[C@]4(CCOC4)C(=N)N3)c2)CC1` [Example 81e], the Ki was 998 nM.

As to `C[C@@]1(c2sc(-c3ccnc(-c4ccoc4)c3)cc2Cl)CS(=O)(=O)[C@@]2(CCOC2)C(=N)N1` [Example 63l], the Ki was 674 nM.

Still in this assay, the particulars now being: read-out: BACE1 % Inh. at 10 μM.
Take `Cc1ncc(NC(=O)c2cc(Cl)c([C@]3(C)CS(=O)(=O)C4(CCCCC4)C(=N)N3)s2)cn1` [Example 80h]: the inhibition at 10 µM was found to be 32%. On the same count and under the same terms, for `C[C@@]1(c2cc(NC(=O)C3CCOCC3)ccc2F)CS(=O)(=O)[C@]2(CCOC2)C(=N)N1` [Example 81q] the value was 15%; for `CC(C)C(F)(F)c1ccc(C(=O)Nc2ccc(F)c([C@]3(C)CS(=O)(=O)[C@]4(CCOC4)C(=N)N3)c2)nc1` [Example 81ac], 35%. On the same count and under the same terms, for `C[C@@]1(c2cc(NC(=O)c3ccc(F)cc3F)ccc2F)CS(=O)(=O)[C@]2(CCOC2)C(=N)N1` [Example 81v] the value was 58%.
